# In patent US6737383B1, “Herbicidal oxadiazolidines” (priority 1999, dated 2004):
# Legend:
# wild oat = assay: Test B pre/postemergence wild oat; assay type: in vivo, Avena fatua
# Method in brief: (§1)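 Test chemicals in a non-phytotoxic solvent mixture with surfactant were sprayed preemergence onto planted seeds and postemergence onto plants 2 to 18 cm tall (1- to 4-leaf stage). After twelve to sixteen days in a greenhouse, injury was visually rated against untreated controls from 0 (no effect) to 10 (complete control).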
# duck salad = assay: Test B flood test duck salad; assay type: in vivo, Heteranthera limosa
# Method in brief: (§2)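 Plants were grown to the 2-leaf stage before treatment with test chemical, then held in a greenhouse for twelve to sixteen days. Injury was visually rated against untreated controls on a 0–10 scale, where 0 is no effect and 10 is complete control.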
# crabgrass = assay: Test B pre/postemergence crabgrass; assay type: in vivo, Digitaria sanguinalis
# Method in brief: as §1
# surinam grass = assay: Test B pre/postemergence surinam grass; assay type: in vivo, Brachiaria decumbens
# Method in brief: as §1
# smallflower flatsedge = assay: Test B flood test smallflower flatsedge; assay type: in vivo, Cyperus difformis
# Method in brief: as §2
# velvetleaf = assay: Test B pre/postemergence velvetleaf; assay type: in vivo, Abutilon theophrasti
# Method in brief: as §1
# pigweed = assay: Test B pre/postemergence pigweed; assay type: in vivo, Amaranthus retroflexus
# Method in brief: as §1
# rape = assay: Test B pre/postemergence rape; assay type: in vivo, Brassica napus
# Method in brief: as §1
# sugar beet = assay: Test B pre/postemergence sugar beet; assay type: in vivo, Beta vulgaris
# Method in brief: as §1
# cocklebur = assay: Test B pre/postemergence cocklebur; assay type: in vivo, Xanthium strumarium
# Method in brief: as §1
# morningglory = assay: Test B pre/postemergence morningglory; assay type: in vivo, Ipomoea hederacea
# Method in brief: as §1
# wheat = assay: Test B pre/postemergence wheat; assay type: in vivo, Triticum aestivum
# Method in brief: as §1
# purple nutsedge = assay: Test B pre/postemergence purple nutsedge; assay type: in vivo, Cyperus rotundus
# Method in brief: as §1
# bedstraw = assay: Test B pre/postemergence bedstraw; assay type: in vivo, Galium aparine; conditions: Preemergence
# Method in brief: as §1
# corn = assay: Test B pre/postemergence corn; assay type: in vivo, Zea mays
# Method in brief: as §1
# blackgrass = assay: Test B pre/postemergence blackgrass; assay type: in vivo, Alopecurus myosuroides
# Method in brief: as §1
# [1] = Postemergence, Rate 500 g/ha, scale of 0 to 10 where 0 is no effect and 10 is complete control
# [2] = Preemergence, Rate 62 g/ha, scale 0 to 10 (0 no effect, 10 complete control)
# [3] = Preemergence, Rate 125 g/ha, scale of 0 to 10 where 0 is no effect and 10 is complete control
# [4] = Preemergence, Rate 250 g/ha, scale 0 to 10, 0 is no effect, 10 is complete control
# [5] = Preemergence, Rate 500 g/ha, scale 0 to 10, 0 is no effect, 10 is complete control
# [6] = Rate 62 g/ha, Postemergence, scale of 0 to 10 where 0 is no effect and 10 is complete control
# [7] = Rate 62 g/ha, flood test species, Pre-emergence, visual evaluation after twelve to sixteen days
# [8] = Rate 125 g/ha, under heading Pre-emergence, flood test species, visual evaluation after twelve to sixteen days
# [9] = Rate 250 g/ha, Pre-emergence, flood-test species, scale 0 to 10, 0 is no effect, 10 is complete control
# [10] = Rate 500 g/ha, Pre-emergence, flood test species, scale 0 to 10 (0 no effect, 10 complete control)
# [11] = Postemergence, Rate 125 g/ha, scale 0 to 10, 0 is no effect, 10 is complete control
# [12] = Postemergence, Rate 250 g/ha, scale 0 to 10, 0 is no effect, 10 is complete control
# [13] = Preemergence, Rate 250 g/ha, scale of 0 to 10 where 0 is no effect and 10 is complete control
smiles,measurement,setting,value
Cc1nc(Cl)sc1C(C)n1c(=O)on(C(=O)N(c2ccc(F)cc2)C(C)C)c1=O (stereo not shown) [Compound 401],Wild oats plant response rating,wild oat; [1],0
same,"Plant response rating, Wild oats",wild oat; [2],0
same,"Plant response rating, Wild oats",wild oat; [3],0
same,Wild oats plant response rating,wild oat; [4],0
same,Wild oats plant response rating,wild oat; [5],0
same,Wild oats plant response rating,wild oat; [6],0
same,"Plant response rating, Ducksalad (0 to 10 scale, 0 is no effect, 10 is complete control)",duck salad; [7],0
same,"Ducksalad plant response rating (0 to 10 scale, 0 is no effect, 10 is complete control)",duck salad; [8],0
same,Ducksalad plant response rating,duck salad; [9],0
same,Ducksalad plant response rating,duck salad; [10],0
same,"Plant response rating, Crabgrass",crabgrass; [11],0
same,"Plant response rating, Crabgrass",crabgrass; [12],2
same,Crabgrass plant response rating,crabgrass; [1],3
same,"Plant response rating, Crabgrass",crabgrass; [2],0
same,"Plant response rating, Crabgrass",crabgrass; [3],2
same,Crabgrass plant response rating,crabgrass; [4],8
same,Crabgrass plant response rating,crabgrass; [5],10
same,Crabgrass plant response rating,crabgrass; [6],0
same,"Plant response rating, B. signalgrass",surinam grass; [11],0
same,"Plant response rating, B. signalgrass",surinam grass; [12],0
same,B. signalgrass plant response rating,surinam grass; [1],0
same,"Plant response rating, B. signalgrass",surinam grass; [2],0
same,"Plant response rating, B. signalgrass",surinam grass; [3],0
same,B. signalgrass plant response rating,surinam grass; [13],0
same,B. signalgrass plant response rating,"surinam grass; Preemergence, Rate 500 g/ha, scale of 0 to 10 where 0 is no effect and 10 is complete control",0
same,B. signalgrass plant response rating,surinam grass; [6],0
same,"Plant response rating, S. Flatsedge (0 to 10 scale, 0 is no effect, 10 is complete control)",smallflower flatsedge; [7],0
same,"S. Flatsedge plant response rating (0 to 10 scale, 0 is no effect, 10 is complete control)",smallflower flatsedge; [8],0
same,S. Flatsedge plant response rating,smallflower flatsedge; [9],0
same,S. Flatsedge plant response rating,smallflower flatsedge; [10],0
same,"Plant response rating, Velvetleaf",velvetleaf; [12],0
same,Velvetleaf plant response rating,velvetleaf; [1],3
same,"Plant response rating, Velvetleaf",velvetleaf; [2],0
same,"Plant response rating, Velvetleaf",velvetleaf; [3],0
same,Velvetleaf plant response rating,velvetleaf; [4],0
same,Velvetleaf plant response rating,velvetleaf; [5],0
same,Velvetleaf plant response rating,velvetleaf; [6],0
same,"Plant response rating, Redroot pigweed",pigweed; [12],1
same,Redroot pigweed plant response rating,pigweed; [1],2
same,"Plant response rating, Redroot pigweed",pigweed; [2],0
same,"Plant response rating, Redroot pigweed",pigweed; [3],0
same,Redroot pigweed plant response rating,pigweed; [4],0
same,Redroot pigweed plant response rating,pigweed; [5],0
same,Redroot pigweed plant response rating,pigweed; [6],0
same,Rape plant response rating,rape; [1],7
same,"Plant response rating, Rape",rape; [2],0
same,"Plant response rating, Rape",rape; [3],0
same,Rape plant response rating,rape; [4],0
same,Rape plant response rating,rape; [5],0
same,Rape plant response rating,rape; [6],0
same,"Plant response rating, Sugarbeets",sugar beet; [12],0
same,Sugarbeets plant response rating,sugar beet; [1],0
same,"Plant response rating, Sugarbeets",sugar beet; [2],0
same,"Plant response rating, Sugarbeets",sugar beet; [3],0
same,Sugarbeets plant response rating,sugar beet; [4],0
same,Sugarbeets plant response rating,sugar beet; [5],0
same,Sugarbeets plant response rating,sugar beet; [6],0
same,"Plant response rating, Cocklebur",cocklebur; [11],0
same,"Plant response rating, Cocklebur",cocklebur; [12],0
same,Cocklebur plant response rating,cocklebur; [1],1
same,"Plant response rating, Cocklebur",cocklebur; [2],0
same,"Plant response rating, Cocklebur",cocklebur; [3],0
same,Cocklebur plant response rating,cocklebur; [4],0
same,Cocklebur plant response rating,cocklebur; [5],0
same,Cocklebur plant response rating,cocklebur; [6],0
same,"Plant response rating, Morningglory",morningglory; [12],6
same,Morningglory plant response rating,morningglory; [1],7
same,"Plant response rating, Morningglory",morningglory; [2],0
same,"Plant response rating, Morningglory",morningglory; [3],0
same,Morningglory plant response rating,morningglory; [4],0
same,Morningglory plant response rating,morningglory; [5],0
same,Morningglory plant response rating,morningglory; [6],3
same,Wheat plant response rating,wheat; [1],0
same,"Plant response rating, Wheat",wheat; [2],0
same,"Plant response rating, Wheat",wheat; [3],0
same,Wheat plant response rating,wheat; [4],0
same,Wheat plant response rating,wheat; [5],0
same,Wheat plant response rating,wheat; [6],0
same,"Plant response rating, Nutsedge",purple nutsedge; [12],0
same,Nutsedge plant response rating,purple nutsedge; [1],0
same,"Plant response rating, Nutsedge",purple nutsedge; [2],0
same,"Plant response rating, Nutsedge",purple nutsedge; [3],0
same,Nutsedge plant response rating,purple nutsedge; [4],0
same,Nutsedge plant response rating,purple nutsedge; [5],0
same,Nutsedge plant response rating,purple nutsedge; [6],0
same,"Plant response rating, Bedstraw","bedstraw; Rate 62 g/ha, scale 0 to 10 (0 no effect, 10 complete control)",0
same,"Plant response rating, Bedstraw","bedstraw; Rate 125 g/ha, scale of 0 to 10 where 0 is no effect and 10 is complete control",0
same,"Plant response rating, Corn",corn; [11],0
same,"Plant response rating, Corn",corn; [12],0
same,Corn plant response rating,corn; [1],0
same,"Plant response rating, Corn",corn; [2],0
same,"Plant response rating, Corn",corn; [3],0
same,Corn plant response rating,corn; [4],0
same,Corn plant response rating,corn; [5],0
same,Corn plant response rating,corn; [6],0
same,"Plant response rating, Blackgrass",blackgrass; [11],0
same,"Plant response rating, Blackgrass",blackgrass; [12],0
same,Blackgrass plant response rating,blackgrass; [1],0
same,"Plant response rating, Blackgrass",blackgrass; [2],0
same,"Plant response rating, Blackgrass",blackgrass; [3],0
same,Blackgrass plant response rating,blackgrass; [13],0
same,Blackgrass plant response rating,blackgrass; [5],2
same,Blackgrass plant response rating,blackgrass; [6],0
